Measured values published in US10358464B2, “Specific binding sites in collagen for integrins and use thereof” (The Texas A&M University System, priority 2005, dated 2019).
Non-standard residues stand in square brackets, D forms with d. Residues, ends and D or L forms follow the SMILES beside them. Hyp = O=C(O)[C@@H]1C[C@@H](O)CN1

Legend:
[1] = biological target: T1, α1I binding to type III collagen (Homo sapiens, UniProt P56199); experiment: Competition ELISA, inhibition of I domain binding to type III collagen; details: 100 μM peptide, 0.5 μM α1I, type III procollagen-coated wells
T1 construct: recombinant I domains from integrins α1 and α2 (α1I and α2I); made in house

[2] = biological target: T2, α2I binding to type III collagen (Homo sapiens, UniProt P17301); experiment: as above; details: 100 μM peptide, 5 μM α2I, type III procollagen-coated wells
T2 construct: recombinant I domains from integrins α1 and α2 (α1I and α2I); made in house

MRC-5 cells = experiment: Cell attachment assay on coated substrates; assay type: cell-based, human; details: room temperature
Experimental: Reagents and Cell Culture. The human recombinant mature type III collagen used for cell attachment assays was purchased from FibroGen. All cell culture media components were purchased from Invitrogen. The human lung fibroblast cell line MRC-5 was purchased from American Type Culture Collection (ATCC) (Manassas, Va.). The cells were cultured and passaged in Dulbecco's modified Eagle's medium (DMEM) supplemented with 10% fetal bovine serum, 100 unit/ml penicillin and 100 μg/ml streptomycin. The cells were grown to subconfluence and passaged every 2-3 days.
Cell attachment assay. MRC-5 cells were starved overnight in serum deficient DMEM containing penicillin and streptomycin, then detached using 1 mM EDTA and 0.025% trypsin at 37° C. for 2 minutes. The cells were washed with PBS and resuspended in DMEM containing 0.2% BSA supplemented with 2 mM MgCl2. 100 μl of the cell suspension (˜1.5×10^5 cells/ml) were added to the microtiter wells coated with different concentrations of collagen or collagen peptides and blocked with PBS containing 0.5% (w/v) BSA. After incubation at room temperature for 45 min, the wells were washed with PBS. Attached cells were fixed with 3% p-formaldehyde for 10 min at room temperature. Following washing with cold Tris-buffered saline (TBS), pH 7.4, cells were fixed again in 20% methanol for 10 min and stained with 0.5% crystal violet for 5 min. The wells were thoroughly washed with distilled water and air-dried. Sodium citrate (0.1 M) was then added to the wells to dissolve the dye and the absorbance at 590 nm was measured. The maximum cell attachment on type III collagen was set to 100% and, residual attachment on BSA was set to 0%.
Adhesion of MRC-5 cells to peptide#1 (SEQ ID NO: 15) substrates. […] Wells in 96-well plates were coated with increasing concentrations of type III collagen, peptide #1 (SEQ ID NO: 15) or #2 (SEQ ID NO: 16) and 1.5×10^4 MRC-5 cells were added to each well. The plate was incubated for 45 min at room temperature and adhering cells were quantified as described herein.

[3] = CD temperature-dependent denaturation of triple helix; assay type: physicochemical; details: CD ellipticity at 225 nm, 20° C./hr, Boltzmann sigmoidal fit
Experimental: Circular Dichroism (CD) Spectroscopy. Synthetic collagen peptides were analyzed by CD spectroscopy, as described previously (18) with the following modifications. Briefly, peptides were dissolved in HBS to a concentration of 50 μM. CD spectra were collected on a Jasco J720 spectropolarimeter (Tokyo, Japan) from 190 to 240 nm, with bandwidth of 1 nm and integrated for 1 s at 0.2 nm intervals. Samples were measured at room temperature using cuvettes with 0.02 cm path length. For temperature-dependent denaturation analysis, […] of peptides were added to a thermostatically controlled cuvette with a 0.5 cm path length. Thermal transition profiles were recorded at 225 nm as described above with a temperature slope of 20° C./hr. To calculate the temperature melting points, the thermal transition profiles were fitted with Boltzmann sigmoidal model using the GraphPad Prism™ software (GraphPad Software Inc., San Diego, Calif.).

α1I = α1I (Homo sapiens, UniProt P56199); experiment: SPR, I domain binding to immobilized synthetic collagen peptide
α2I = α2I (Homo sapiens, UniProt P17301); experiment: as above
[4] = 30 nM I domain, 2 mM EDTA versus 1 mM MgCl2

α1I, sequence (P56199 161-360 limits assumed): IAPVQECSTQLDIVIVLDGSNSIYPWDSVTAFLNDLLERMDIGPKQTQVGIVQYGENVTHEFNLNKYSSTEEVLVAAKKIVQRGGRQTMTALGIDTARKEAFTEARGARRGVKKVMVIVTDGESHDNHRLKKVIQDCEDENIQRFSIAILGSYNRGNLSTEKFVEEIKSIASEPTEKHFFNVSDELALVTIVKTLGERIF
α2I, sequence (P17301 188-365 limits assumed): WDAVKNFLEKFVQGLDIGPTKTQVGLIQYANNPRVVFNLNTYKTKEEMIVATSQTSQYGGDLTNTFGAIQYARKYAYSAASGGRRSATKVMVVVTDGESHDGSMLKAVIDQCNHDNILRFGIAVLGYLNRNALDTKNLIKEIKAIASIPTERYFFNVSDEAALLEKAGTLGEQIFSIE
T1 sequence (P56199 161-360 limits assumed): as the sequence (P56199 161-360 limits assumed) above
T2 sequence (P17301 188-365 limits assumed): as the sequence (P17301 188-365 limits assumed) above

inhibition at 100 µM [1]: 100%
inhibition at 100 µM [2]: 80%
melting temperature (Tm) of triple helix [3]: 43 °C
Kd (α1I): 23 nM
koff (α1I): 0.0013 s⁻¹
kon (α1I): 56000 M⁻¹ s⁻¹
binding in the presence of EDTA (α1I; [4]): completely abolished binding
dissociate rate (α1I; 15° C., 1:1 binding model): 1.3 s^−1×10^3
Kd (α2I): 283 nM
koff (α2I): 0.012 s⁻¹
kon (α2I): 44000 M⁻¹ s⁻¹
binding in the presence of EDTA (α2I; [4]): completely abolished binding
dissociate rate (α2I; 15° C., 1:1 binding model): 12 s^−1×10^3
Compound: CC(C)C[C@H](NC(=O)CNC(=O)[C@H](CCCNC(=N)N)NC(=O)[C@H](CCC(=O)O)NC(=O)CNC(=O)[C@@H]1C[C@@H](O)CN1C(=O)[C@H](CCCNC(=N)N)NC(=O)CNC(=O)[C@@H]1C[C@@H](O)CN1C(=O)[C@H](CCCNC(=N)N)NC(=O)CNC(=O)[C@@H]1C[C@@H](O)CN1C(=O)[C@@H]1CCCN1C(=O)CNC(=O)[C@@H]1C[C@@H](O)CN1C(=O)[C@@H]1CCCN1C(=O)CNC(=O)[C@@H]1C[C@@H](O)CN1C(=O)[C@@H]1CCCN1C(=O)CN)C(=O)N1C[C@H](O)C[C@H]1C(=O)NCC(=O)N1CCC[C@H]1C(=O)N1C[C@H](O)C[C@H]1C(=O)NCC(=O)N1CCC[C@H]1C(=O)N1C[C@H](O)C[C@H]1C(=O)NCC(=O)N1CCC[C@H]1C(=O)N1C[C@H](O)C[C@H]1C(N)=O [peptide #1, (GPO)3GROGROGERGLO(GPO)3] (H-GP[Hyp]GP[Hyp]GP[Hyp]GR[Hyp]GR[Hyp]GERGL[Hyp]GP[Hyp]GP[Hyp]GP[Hyp]-NH2; N-terminus and C-terminus assumed)
adhesion of MRC-5 cells to coated substrate (MRC-5 cells; increasing coating concentrations, 1.5×10^4 cells per well, 45 min): could support adhesion of MRC-5 cells in a dose-dependent manner
cell spreading on coated substrate (MRC-5 cells; 1.5 hrs (data not shown)): Considerable cell spreading
